From patent publication US10421765B2, “Tetrahydropyrido[4,3-d]pyrimidine inhibitors of ATR kinase” (Board of Regents, The University of Texas System, priority 2017, dated 2019)
Like-named read-outs stand apart in the source and are kept apart here.

Tests used:
ATR/ATRIP complex = ATR/ATRIP complex (Homo sapiens (Human), UniProt Q13535); assay: ATR/ATRIP enzymatic assay (Caliper-based); assay type: biochemical; details: FAM-labeled RAD17 peptide, ATP
Experimental: Human full-length FLAG-TEV-ATR and His6-ATRIP were co-expressed in HEK293 cells. The cell pellet (20 g) was harvested and lysed in 100 mL of lysis buffer (20 mM Tris-HCl pH 7.5 at room temperature, 137 mM NaCl, 10% glycerol, 1 mM DTT, 1% (v/v) Tween-20, 0.1% (v/v) NP-40, complete protease inhibitor cocktail tablets, phosphatase inhibitor cocktail tablets, 2 mM MgCl2, 0.2 mM EDTA, and 1 mM ATP). After sonication and centrifugation, the supernatant was incubated at 4° C. for 3 hours with 1 mL of anti-FLAG resin (Sigma catalog #A2220) that had been pre-equilibrated in buffer A (20 mM Tris-HCl pH 7.5 at room temperature, 137 mM NaCl, 10% glycerol, 1 mM DTT, 2 mM MgCl2, and 0.2 mM EDTA). The sample was loaded into a column, and then washed with buffer A three times. Protein was subsequently eluted with 2 ml of buffer B (buffer A+200 μg/ml 3×FLAG peptide).
The ability of new chemical matter to inhibit the ATR catalytic activity in this ATR/ATRIP complex was assessed using a Caliper-based assay. A 2x enzyme solution (i.e., 4 nM enzyme) was prepared using 1× Kinase Reaction Buffer (25 mM HEPES pH 8, 0.0055% Brij-35, 10 mM MnCl2, and 1 mM DTT). A 2x peptide solution was then prepared consisting of 10 uM FAM-labeled RAD17 peptide (GL Biochem, catalog #524315) in 1× Kinase Reaction Buffer supplemented with 2 μM ATP. 10 μL of the 2× enzyme solution was transferred to an assay plate containing 60 nL of test compound (from a 3× serial dilution) in 100% DMSO. Following a 30 minute incubation at 28° C., 10 μL of the 2× peptide solution was then transferred to the same assay plate. The reaction was allowed to incubate at 28° C. for 6 hours. After adding […] of stop buffer (100 mM HEPES pH 7.5, 0.015% Brij-35, 0.2% Coating-3 Reagent (PerkinElmer, catalog #PN760050), and 50 mM EDTA), data were collected on a Caliper instrument. Conversion values were converted to inhibition values via the following equation: % inhibition=(max−conversion)/(max−min)*100, whereby “max” corresponds to the DMSO control and “min” corresponds to the low control. IC50 values were calculated using the following equation in XLFit: Y=Bottom+(Top−Bottom)/1+(IC50/X)^HillSlope).

[1] = tested on: ATR-driven phosphorylation of Chk1 kinase at Serine 345 in HT-29 colorectal adenocarcinoma cells; assay: pCHK1 cellular assay (CHK1 p-Ser345 AlphaScreen SureFire); assay type: cell-based; details: Homo sapiens, HT-29, HT-29 cells, 4-nitroquinoline N-oxide 12 uM; read-out: Cell IC50 (pCHK1 IC50 values)
Experimental: Inhibitors of ATR kinase are effective at inhibiting the ATR-driven phosphorylation of the downstream target Chk1 kinase at Serine 345, following the addition of 4-nitroquinoline N-oxide, a chemical used to induce DNA damage. Cellular IC50 for the inhibitors of ATR described herein were measured in HT-29 colorectal adenocarcinoma cells. HT-29 cells were routinely maintained in McCoy's 5A media (ATCC Catalog #30-2007) supplemented with 10% fetal bovine serum (Sigma Catalog #F2442) and 1× Penicillin-Streptomycin (Gibco Catalog #15140-122) using a humidified incubator (37° C., 5% CO2, and ambient O2).
In preparation for the CHK1 (p-Ser345) ALPHASCREEN® SUREFIRE® assay, cells were harvested and resuspended in McCoy's 5A media supplemented with 10% fetal bovine serum and 1× Penicillin-Streptomycin. Cells were seeded onto a 384-well black CELLSTAR® Tissue Culture Plate (VWR Catalog #89085-314) at a density of 13,000 cells/well in a volume of 40 uL. The microplate was incubated overnight (approximately 20 hours) at 37° C. with 5% CO2 and ambient O2. Stock solutions of the test compounds were prepared in 100% DMSO (Sigma, Catalog #D2650) and serially diluted 1:3 using 100% DMSO. Compounds were additionally diluted 1:33 in culture medium, and 10 ul/well were transferred to the tissue culture plate. Following the compound addition the microplate was incubated at 37° C. for 90 minutes. 10 uL of 4-nitroquinoline N-oxide (Sigma Aldrich Catalog #N8141-1G) diluted in media (final concentration 12 uM) were added to the tissue culture plate followed by a 120 minute incubation at 37° C. The cells were then washed with PBS and lysed using 10 uL/well SUREFIRE® Kit lysis buffer diluted to 1× in water (PerkinElmer Catalog #TGRCHK1S50K), with mixing on an orbital shaker at 500 rpm for 20 min at RT. Lysates were frozen at −20° C. overnight.
4 uL/well of lysate was then transferred from the tissue culture plate to a 384-well, white, low volume, PROXIPLATE™ (PerkinElmer Catalog #600828). 5 uL/well of the acceptor bead solution, prepared by diluting SUREFIRE® Kit activation buffer (PerkinElmer Catalog #TGRCHK1S50K) and ALPHASCREEN® Protein A acceptor beads (PerkinElmer Catalog #6760617R) in SUREFIRE® Kit reaction buffer (PerkinElmer Catalog #TGRCHK1S50K), were added to the lysates under subdued light and incubated at room temperature for 120 min. 2 uL/well of the donor bead solution, prepared by diluting ALPHASCREEN® Streptavidin donor beads (PerkinElmer Catalog #6760617R) in SUREFIRE® Kit dilution buffer (PerkinElmer Catalog #TGRCHK1S50K), were added under subdued light and incubated at room temperature for an addition 120 minutes. The pCHK1 ALPHASCREEN® signal was measured using an ENVISION® plate reader (PerkinElmer). IC50 values were calculated using a four-parameter logistic curve fit using Genedata Screener software. Percent of control for each compound concentration was calculated by the following formula: 100*(Compound−Min)/(Max−Min) where “Max” is the high control, DMSO, and “Min” is the low control, 5 uM ATR inhibitor.

[2] = read-out: ATR/ATRIP Enzyme IC50
[3] = estimated range, read-out: ATR/ATRIP Enzyme IC50 (estimated class)

Chain of ATR/ATRIP complex (Q13535 whole entry): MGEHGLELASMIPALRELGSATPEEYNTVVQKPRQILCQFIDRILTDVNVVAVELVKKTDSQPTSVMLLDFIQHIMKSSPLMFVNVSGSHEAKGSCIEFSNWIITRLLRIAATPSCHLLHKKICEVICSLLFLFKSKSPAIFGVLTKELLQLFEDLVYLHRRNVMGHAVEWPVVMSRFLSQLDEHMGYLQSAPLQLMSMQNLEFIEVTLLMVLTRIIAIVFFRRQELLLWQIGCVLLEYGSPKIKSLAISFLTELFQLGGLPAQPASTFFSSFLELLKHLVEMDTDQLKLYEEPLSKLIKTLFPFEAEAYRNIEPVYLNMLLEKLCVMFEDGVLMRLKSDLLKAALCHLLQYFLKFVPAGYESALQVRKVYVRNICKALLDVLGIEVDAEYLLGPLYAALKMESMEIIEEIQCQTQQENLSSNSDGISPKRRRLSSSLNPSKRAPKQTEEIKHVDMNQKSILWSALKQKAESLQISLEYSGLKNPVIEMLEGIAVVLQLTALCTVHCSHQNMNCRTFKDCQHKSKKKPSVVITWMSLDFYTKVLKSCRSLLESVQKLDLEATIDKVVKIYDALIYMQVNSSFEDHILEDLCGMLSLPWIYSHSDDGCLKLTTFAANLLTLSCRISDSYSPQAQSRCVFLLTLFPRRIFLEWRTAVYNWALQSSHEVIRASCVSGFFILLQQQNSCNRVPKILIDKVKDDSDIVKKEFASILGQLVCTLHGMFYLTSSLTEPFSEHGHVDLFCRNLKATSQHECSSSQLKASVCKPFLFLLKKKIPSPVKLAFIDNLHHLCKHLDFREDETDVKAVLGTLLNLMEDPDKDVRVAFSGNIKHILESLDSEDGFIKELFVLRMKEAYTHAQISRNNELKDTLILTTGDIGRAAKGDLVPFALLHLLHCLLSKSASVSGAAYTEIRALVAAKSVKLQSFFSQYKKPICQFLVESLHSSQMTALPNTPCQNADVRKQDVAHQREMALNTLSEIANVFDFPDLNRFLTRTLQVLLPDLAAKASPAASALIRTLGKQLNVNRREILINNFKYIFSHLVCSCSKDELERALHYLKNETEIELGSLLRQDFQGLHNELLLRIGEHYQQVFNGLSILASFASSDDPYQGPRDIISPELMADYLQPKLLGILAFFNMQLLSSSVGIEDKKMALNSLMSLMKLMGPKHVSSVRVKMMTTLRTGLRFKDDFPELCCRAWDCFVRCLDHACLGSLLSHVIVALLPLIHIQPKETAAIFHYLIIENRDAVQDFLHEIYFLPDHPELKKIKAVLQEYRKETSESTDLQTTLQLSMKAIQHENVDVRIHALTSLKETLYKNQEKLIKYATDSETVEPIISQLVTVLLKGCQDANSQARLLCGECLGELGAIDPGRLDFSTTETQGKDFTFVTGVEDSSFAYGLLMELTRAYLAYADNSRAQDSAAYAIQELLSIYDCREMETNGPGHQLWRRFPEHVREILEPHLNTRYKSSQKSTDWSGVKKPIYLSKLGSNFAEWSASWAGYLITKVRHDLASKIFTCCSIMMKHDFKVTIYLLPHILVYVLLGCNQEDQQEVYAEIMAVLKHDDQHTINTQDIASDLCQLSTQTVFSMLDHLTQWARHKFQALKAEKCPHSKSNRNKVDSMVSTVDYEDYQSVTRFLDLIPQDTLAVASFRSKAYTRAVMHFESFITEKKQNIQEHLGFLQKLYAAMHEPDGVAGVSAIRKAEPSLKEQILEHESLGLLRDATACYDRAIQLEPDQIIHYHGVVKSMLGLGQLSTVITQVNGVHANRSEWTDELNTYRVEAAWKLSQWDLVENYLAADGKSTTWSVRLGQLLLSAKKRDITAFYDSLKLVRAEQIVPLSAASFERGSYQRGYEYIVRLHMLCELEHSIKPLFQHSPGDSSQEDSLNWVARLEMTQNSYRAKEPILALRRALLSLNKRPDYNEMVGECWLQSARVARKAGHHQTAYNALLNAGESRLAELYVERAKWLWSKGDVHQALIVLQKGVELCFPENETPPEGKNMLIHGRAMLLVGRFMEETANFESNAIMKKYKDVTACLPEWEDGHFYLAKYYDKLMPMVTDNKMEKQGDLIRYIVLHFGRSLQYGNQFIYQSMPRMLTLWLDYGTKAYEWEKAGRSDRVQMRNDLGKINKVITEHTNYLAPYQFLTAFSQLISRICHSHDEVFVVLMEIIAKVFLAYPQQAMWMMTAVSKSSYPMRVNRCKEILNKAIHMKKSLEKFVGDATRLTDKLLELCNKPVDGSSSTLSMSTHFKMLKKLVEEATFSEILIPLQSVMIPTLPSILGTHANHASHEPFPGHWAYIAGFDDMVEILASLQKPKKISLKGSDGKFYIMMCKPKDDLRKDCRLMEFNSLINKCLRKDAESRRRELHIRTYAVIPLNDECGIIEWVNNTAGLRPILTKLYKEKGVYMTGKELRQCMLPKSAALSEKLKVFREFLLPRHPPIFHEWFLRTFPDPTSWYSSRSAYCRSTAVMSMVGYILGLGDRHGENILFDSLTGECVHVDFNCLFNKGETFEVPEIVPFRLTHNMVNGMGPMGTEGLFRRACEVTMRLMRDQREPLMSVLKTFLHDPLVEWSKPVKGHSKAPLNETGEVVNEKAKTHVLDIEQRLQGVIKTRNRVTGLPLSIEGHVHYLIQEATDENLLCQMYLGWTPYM
Chain of ATR/ATRIP complex (Q8WXE1 whole entry partner): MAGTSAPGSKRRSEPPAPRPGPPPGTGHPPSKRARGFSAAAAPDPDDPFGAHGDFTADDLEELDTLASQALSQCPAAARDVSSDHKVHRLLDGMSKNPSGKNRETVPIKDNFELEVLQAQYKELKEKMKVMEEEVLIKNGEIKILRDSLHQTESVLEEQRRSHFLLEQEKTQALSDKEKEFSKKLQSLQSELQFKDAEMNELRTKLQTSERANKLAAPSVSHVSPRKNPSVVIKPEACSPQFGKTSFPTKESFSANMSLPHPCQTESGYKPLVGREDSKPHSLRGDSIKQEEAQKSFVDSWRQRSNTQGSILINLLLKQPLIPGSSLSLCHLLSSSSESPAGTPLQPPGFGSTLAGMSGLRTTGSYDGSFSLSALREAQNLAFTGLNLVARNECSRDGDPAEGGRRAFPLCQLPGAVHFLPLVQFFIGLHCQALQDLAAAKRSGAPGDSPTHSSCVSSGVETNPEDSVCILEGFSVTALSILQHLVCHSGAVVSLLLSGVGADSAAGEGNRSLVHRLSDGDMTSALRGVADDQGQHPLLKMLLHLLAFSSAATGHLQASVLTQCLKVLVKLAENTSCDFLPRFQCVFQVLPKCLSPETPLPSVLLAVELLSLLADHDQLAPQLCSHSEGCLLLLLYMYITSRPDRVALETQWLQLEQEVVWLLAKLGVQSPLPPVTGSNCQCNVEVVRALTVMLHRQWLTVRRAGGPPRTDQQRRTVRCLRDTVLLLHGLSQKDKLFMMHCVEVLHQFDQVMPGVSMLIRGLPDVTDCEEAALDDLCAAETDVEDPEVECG

Row | SMILES | IC50 (ATR/ATRIP complex; [2]) [nM] | IC50 [1] [nM] | IC50 (ATR/ATRIP complex; [3]) [nM]
1 | C[C@@H]1Cc2ncnc(N3CCC(S(C)(=O)=O)CC3)c2CN1c1ccnc2[nH]ccc12 [Example 8, (R)-7-Methyl-4-(4-(methylsulfonyl)piperidin-1-yl)-6-(1H-pyrrolo[2,3-b]pyridin-4-yl)-5,6,7,8-tetrahydropyrido[4,3-d]pyrimidine bis(trifluoroacetate)] | 979 | 127 | –
2 | C[C@@H]1Cc2ncnc(N3CCC(S(C)(=O)=O)CC3)c2CN1c1cc(Cl)nc2[nH]ccc12 [Example 9, (R)-6-(6-Chloro-1H-pyrrolo[2,3-b]pyridin-4-yl)-7-methyl-4-(4-(methylsulfonyl)-piperidin-1-yl)-5,6,7,8-tetrahydropyrido[4,3-d]pyrimidine bis(trifluoroacetate)] | 442 | 25 | –
3 | COC(=O)N1CCCC(c2ncnc3c2CN(c2cc(Cl)nc4[nH]ccc24)[C@H](C)C3)C1 (stereo partly drawn) [Example 10, Methyl 3-((R)-6-(6-chloro-1H-pyrrolo[2,3-b]pyridin-4-yl)-7-methyl-5,6,7,8-tetrahydro-pyrido[4,3-d]pyrimidin-4-yl)piperidine-1-carboxylate bis(trifluoroacetate)] | 408 | 39 | –
4 | C[C@@H]1Cc2ncnc(N3CCC(O)CC3)c2CN1c1cc(Cl)nc2[nH]ccc12 [Example 12, (R)-1-(6-(6-Chloro-1H-pyrrolo[2,3-b]pyridin-4-yl)-7-methyl-5,6,7,8-tetrahydropyrido[4,3-d]pyrimidin-4-yl)piperidin-4-ol] | 518 | 28 | –
5 | C[C@@H]1Cc2ncnc(N3C[C@H]4CC[C@@H](C3)C4NS(C)(=O)=O)c2CN1c1cc(Cl)nc2[nH]ccc12 (stereo partly drawn) [Example 13, N-((1R,5S)-3-((R)-6-(6-Chloro-1H-pyrrolo[2,3-b]pyridin-4-yl)-7-methyl-5,6,7,8-tetrahydropyrido[4,3-d]pyrimidin-4-yl)-3-azabicyclo[3.2.]octan-8-yl)methanesulfonamide] | 114 | 29 | –
6 | CS(=O)(=O)c1cccc(-c2ncnc3c2CN(c2ccnc4[nH]ccc24)CC3)c1 [Example 14, 4-(3-methanesulfonyl-phenyl)-6-{1H-pyrrolo-[2,3-b]pyridin-4-yl}-5H,6H,7H,8H-pyrido [4,3-d]pyrimidine] | – | 1610 | 1000 to 10000
7 | CC1Cc2ncnc(-c3cccc(S(C)(=O)=O)c3)c2CN1c1ccnc2[nH]ccc12 (centres unmarked) [Example 15, 4-(3-methanesulfonyl-phenyl)-7-methyl-6-{1H-pyrrolo[2,3-b]pyridin-4-yl}-5H,6H,7H,8H-pyrido[4,3-d]pyrimidine] | – | 152 | 1000 to 10000
8 | C[C@@H]1Cc2ncnc(C3CCCN(S(C)(=O)=O)C3)c2CN1c1ccnc2[nH]ccc12 (stereo partly drawn) [Example 16, 1-methanesulfonyl-3-[(7R)-7-methyl-6-{1H-pyrrolo[2,3-b]pyridin-4-yl}-5H,6H,7H,8H-pyrido[4,3-d]pyrimidin-4-yl]piperidine] | 3570 | 140 | –
9 | C[C@@H]1Cc2ncnc(C3CCN(S(C)(=O)=O)C3)c2CN1c1ccnc2[nH]ccc12 (stereo partly drawn) [Example 17, 1-methanesulfonyl-3-[(7R)-7-methyl-6-{1H-pyrrolo[2,3-b]pyridin-4-yl}-5H,6H,7H,8H-pyrido[4,3-d]pyrimdin-4-yl]pyrrolidine] | 936 | 362 | –
10 | C[C@@H]1Cc2ncnc(N3CCCC(S(C)(=O)=O)C3)c2CN1c1ccnc2[nH]ccc12 (stereo partly drawn) [Example 18, 3-methanesulfonyl-1-[(7R)-7-methyl-6-{1H-pyrrolo[2,3-b]pyridin-4-yl}-5H,6H,7H,8H-pyrido[4,3-d]pyrimidin-4-yl]piperidine] | 420 | 133 | –
11 | C[C@@H]1Cc2ncnc(N3CCCN(S(C)(=O)=O)CC3)c2CN1c1ccnc2[nH]ccc12 [Example 19, 1-methanesulfonyl-4-[(7R)-7-methyl-6-{1H-pyrrolo[2,3-b]pyridin-4-yl}-5H,6H,7H,8H-pyrido[4,3-d]pyrimidin-4-yl]-1,4-diazepane] | – | 162 | 1000 to 10000
12 | C[C@@H]1Cc2ncnc(N3CCN(S(C)(=O)=O)CC3)c2CN1c1cc(Cl)nc2[nH]ccc12 [Example 20, 1-[(7R)-6-{6-chloro-1H-pyrrolo[2,3-b]pyridin-4-yl}-7-methyl-5H,6H,7H,8H-pyrido[4,3-d]pyrimidin-4-yl]-4-methanesulfonyl-piperazine] | – | 97 | 1000 to 10000
13 | C[C@@H]1Cc2ncnc(N3CCN(S(C)(=O)=O)C(C)(C)C3)c2CN1c1cc(Cl)nc2[nH]ccc12 [Example 21, 4-[(7R)-6-{6-chloro-1H-pyrrolo[2,3-b]pyridin-4-yl}-7-methyl-5H,6H,7H,8H-pyrido[4,3-d]pyrimidin-4-yl]-1-methanesulfonyl-2,2-dimethylpiperazine] | – | 57 | 1000 to 10000
14 | C[C@@H]1Cc2ncnc(N3CCS(=O)(=O)CC3)c2CN1c1cc(Cl)nc2[nH]ccc12 [Example 22, 4-[(7R)-6-{6-chloro-1H-pyrrolo[2,3-b]pyridin-4-yl}-7-methyl-5H,6H,7H,8H-pyrido[4,3-d]pyrimidin-4-yl]-1λ^6-thiomorpholine-1,1-dione] | – | 554 | 1000 to 10000
15 | C[C@@H]1Cc2ncnc(C3CCN(S(C)(=O)=O)CC3)c2CN1c1ncnc2[nH]ccc12 [Example 23, 1-methanesulfonyl-4-[(7R)-7-methyl-6-{7H-pyrrolo[2,3-d]pyrimidin-4-yl}-5H,6H,7H,8H-pyrido[4,3-d]pyrimidin-4-yl]piperidine] | – | 611 | 1000 to 10000
16 | CCS(=O)(=O)N1CCCC(c2ncnc3c2CN(c2cc(Cl)nc4[nH]ccc24)[C@H](C)C3)C1 (stereo partly drawn) [Example 24, 3-[(7R)-6-{6-chloro-1H-pyrrolo[2,3-b]pyridin-4-yl}-7-methyl-5H,6H,7H,8H-pyrido[4,3-d]pyrimidin-4-yl]-1-(ethanesulfonyl)-piperidine] | – | 285 | 1000 to 10000
